What was measured:
barnyardgrass [1] = experiment: Test B pre-/postemergence herbicide test; assay type: in vivo, Echinochloa crus-galli; settings: for Barnyardgrass plant response rating: postemergence, scale 0 (no effect) to 100 (complete control)
Summary of the method: (§1)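 Seeds were planted and treated preemergence with compounds formulated in a non-phytotoxic solvent mixture containing surfactant, while plants at the 1- to 4-leaf stage (2 to 18 cm) received postemergence sprays. Flooded paddy plants were grown to the 2-leaf stage. After 13 to 15 days in a greenhouse, injury was visually rated 0–100 against untreated controls.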

Surinam grass = experiment: Test B pre-/postemergence herbicide test; assay type: in vivo, Urochloa decumbens; settings: for Surinam Grass plant response rating: postemergence
Summary of the method: (§2)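 Evaluation is visual, comparing treated with control plants on a scale where 0 means no effect and 100 means full control. Treatments were preemergence, or postemergence on seedlings 2–18 cm tall, and held 13–15 days in the greenhouse.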

cocklebur = experiment: Test B pre-/postemergence herbicide test; assay type: in vivo, Xanthium strumarium; settings: for Cocklebur plant response rating: postemergence, scale 0 (no effect) to 100 (complete control)
Summary of the method: as §1

corn = experiment: Test B pre-/postemergence herbicide test; assay type: in vivo, Zea mays; settings: for Corn plant response rating: postemergence
Summary of the method: as §2

large crabgrass = experiment: Test B pre-/postemergence herbicide test; assay type: in vivo, Digitaria sanguinalis; settings: for Crabgrass, Large plant response rating: postemergence
Summary of the method: as §2

giant foxtail = experiment: Test B pre-/postemergence herbicide test; assay type: in vivo, Setaria faberi; settings: for Foxtail, Giant plant response rating: postemergence
Summary of the method: as §2

lambsquarters = experiment: Test B pre-/postemergence herbicide test; assay type: in vivo, Chenopodium album; settings: for Lambsquarters plant response rating: postemergence
Summary of the method: as §2

morningglory = experiment: Test B pre-/postemergence herbicide test; assay type: in vivo, Ipomoea coccinea; settings: for Morningglory plant response rating: postemergence
Summary of the method: as §1

pigweed = experiment: Test B pre-/postemergence herbicide test; assay type: in vivo, Amaranthus retroflexus; settings: for Pigweed plant response rating: postemergence
Summary of the method: as §2

rice [2] = experiment: Test B pre-/postemergence herbicide test; assay type: in vivo, Oryza sativa; settings: 0 = no effect, 100 = complete control, preemergence
Summary of the method: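 Plants compared with untreated controls 13–15 days post-treatment and given a visual 0–100 injury score. Applications: preemergence to seeds; postemergence at 1- to 4-leaf (2–18 cm); paddy species flooded, 2-leaf stage. Vehicle non-phytotoxic, surfactant included.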

velvetleaf = experiment: Test B pre-/postemergence herbicide test; assay type: in vivo, Abutilon theophrasti; settings: for Velvetleaf plant response rating: postemergence
Summary of the method: as §2

blackgrass = experiment: Test B postemergence herbicide test; assay type: in vivo, Alopecurus myosuroides; settings: postemergence, visual rating, scale 0 (no effect) to 100 (complete control)
Summary of the method: (§3)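 Postemergence plants were sprayed with formulated test chemicals at 2 to 18 cm height (1- to 4-leaf stage); paddy species were grown to the 2-leaf stage. After 13 to 15 days in a greenhouse, injury was rated visually against untreated controls on a 0–100 scale (0 = no effect, 100 = complete control).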

wheat = experiment: Test B postemergence herbicide test; assay type: in vivo, Triticum aestivum; design: key to Wheat plant response rating: 0 = no effect, 100 = complete control; settings: postemergence
Summary of the method: (§4)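 Read-out: visual comparison with controls, scored 0 to 100, where 100 means complete control and 0 no effect. Formulated chemicals were applied postemergence to plants 2–18 cm tall (1- to 4-leaf), or to flooded-paddy plants at the 2-leaf stage, then held 13 to 15 days under glass.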

wild oat = experiment: Test B postemergence herbicide test; assay type: in vivo, Avena fatua; settings: postemergence
Summary of the method: as §4

rice [3] = experiment: Test B flooded paddy test; assay type: in vivo, Oryza sativa; settings: 1000 g ai/ha, scale 0 to 100 (0 no effect, 100 complete control)
Summary of the method: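 Each value is a visual 0–100 response rating taken against controls 13 to 15 days after treatment in the greenhouse. Plants received formulated chemical postemergence at the 1- to 4-leaf stage or, in flooded paddy, at the 2-leaf stage.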

[4] = system: small flower umbrella sedge; experiment: Test B flooded paddy test; assay type: in vivo, Cyperus difformis; settings: 1000 g ai/ha, scale 0 to 100 (0 no effect, 100 complete control)
Summary of the method: as §3

ducksalad [5] = experiment: Test B flooded paddy test; assay type: in vivo, Heteranthera limosa; settings: 1000 g ai/ha, scale 0 to 100 (0 no effect, 100 complete control)
Summary of the method: as §3

barnyardgrass [6] = experiment: Test B flooded paddy test; assay type: in vivo, Echinochloa crus-galli; settings: 1000 g ai/ha, scale 0 to 100 (0 no effect, 100 complete control)
Summary of the method: as §3

rice [7] = experiment: Test C flooded paddy test; assay type: in vivo, Oryza sativa
Summary of the method: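 Plants were grown to the 1- to 4-leaf stage (2–18 cm) and then treated postemergence, or grown to the 2-leaf stage for the flooded paddy test. They were held in a greenhouse for 12 to 14 days and then scored by eye against controls, where 0 is no effect and 100 is complete control.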

[8] = system: smallflower umbrella sedge; experiment: Test C flooded paddy test; assay type: in vivo, Cyperus difformis
ducksalad [9] = experiment: Test C flooded paddy test; assay type: in vivo, Heteranthera limosa
barnyardgrass [10] = experiment: Test C flooded paddy test; assay type: in vivo, Echinochloa crus-galli
Summary of the method: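 Postemergence sprays were applied to plants 2 to 18 cm tall (1- to 4-leaf stage); in the flooded paddy test, barnyardgrass was grown to the 2-leaf stage. After 12 to 14 days in a greenhouse, injury was visually rated against untreated controls on a 0–100 scale (100 = complete control).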

[11] = 125 g ai/ha, 0 = no effect, 100 = complete control, preemergence
[12] = 500 g ai/ha, visual rating, 0 = no effect, 100 = complete control, preemergence
[13] = 125 g ai/ha, visual rating, scale 0 (no effect) to 100 (complete control)
[14] = 500 g ai/ha, scale 0 to 100, 0 is no effect, 100 is complete control
[15] = 125 g ai/ha, scale 0 to 100 (0 no effect, 100 complete control)
[16] = 250 g ai/ha, scale of 0 to 100, 0 is no effect, 100 is complete control
[17] = 500 g ai/ha, visual rating after 12 to 14 days, scale 0 to 100 (0 no effect, 100 complete control)

CCn1nc(C(C)(C)C)cc1C(=O)Nc1cccc(C(=O)N2CCOCC2)n1 [Compound 247]
Barnyardgrass plant response rating (0 to 100 scale) (barnyardgrass [1]; [11]): 30
Plant response rating, Barnyardgrass (barnyardgrass [1]; [12]): 80
Barnyardgrass plant response rating (barnyardgrass [1]; 125 g ai/ha, visual rating): 0
Barnyardgrass plant response rating (barnyardgrass [1]; 500 g ai/ha, visual rating): 10
Surinam Grass plant response rating (0 to 100 scale) (Surinam grass; [11]): 20
Plant response rating, Surinam Grass (Surinam grass; [12]): 50
Surinam Grass plant response rating (Surinam grass; [13]): 10
Surinam Grass plant response rating (Surinam grass; [14]): 20
Cocklebur plant response rating (0 to 100 scale) (cocklebur; [11]): 0
Plant response rating, Cocklebur (cocklebur; [12]): 0
Cocklebur plant response rating (cocklebur; 125 g ai/ha, visual rating): 0
Cocklebur plant response rating (cocklebur; 500 g ai/ha, visual rating): 30
Corn plant response rating (0 to 100 scale) (corn; [11]): 0
Plant response rating, Corn (corn; [12]): 30
Corn plant response rating (corn; [13]): 0
Corn plant response rating (corn; [14]): 20
Crabgrass, Large plant response rating (0 to 100 scale) (large crabgrass; [11]): 20
Plant response rating, Crabgrass, Large (large crabgrass; [12]): 80
Crabgrass, Large plant response rating (large crabgrass; [13]): 10
Crabgrass, Large plant response rating (large crabgrass; [14]): 10
Foxtail, Giant plant response rating (0 to 100 scale) (giant foxtail; [11]): 10
Plant response rating, Foxtail, Giant (giant foxtail; [12]): 70
Foxtail, Giant plant response rating (giant foxtail; [13]): 10
Foxtail, Giant plant response rating (giant foxtail; [14]): 20
Lambsquarters plant response rating (0 to 100 scale) (lambsquarters; [11]): 80
Plant response rating, Lambsquarters (lambsquarters; [12]): 100
Lambsquarters plant response rating (lambsquarters; [13]): 60
Lambsquarters plant response rating (lambsquarters; [14]): 70
Morningglory plant response rating (0 to 100 scale) (morningglory; [11]): 0
Plant response rating, Morningglory (morningglory; [12]): 10
Morningglory plant response rating (morningglory; [13]): 20
Morningglory plant response rating (morningglory; [14]): 30
Pigweed plant response rating (0 to 100 scale) (pigweed; [11]): 100
Plant response rating, Pigweed (pigweed; [12]): 100
Pigweed plant response rating (pigweed; [13]): 60
Pigweed plant response rating (pigweed; [14]): 60
Rice plant response rating (0 to 100 scale) (rice [2]; 125 g ai/ha): 10
Plant response rating, Rice (rice [2]; 500 g ai/ha, visual rating): 40
Velvetleaf plant response rating (0 to 100 scale) (velvetleaf; [11]): 20
Plant response rating, Velvetleaf (velvetleaf; [12]): 100
Velvetleaf plant response rating (velvetleaf; [13]): 30
Velvetleaf plant response rating (velvetleaf; [14]): 70
Blackgrass plant response rating (blackgrass; 125 g ai/ha): 0
Blackgrass plant response rating (blackgrass; 500 g ai/ha): 0
Wheat plant response rating (wheat; [13]): 0
Wheat plant response rating (wheat; [14]): 0
Oat, Wild plant response rating (wild oat; [13]): 0
Oat, Wild plant response rating (wild oat; [14]): 10
Rice plant response rating (rice [3]): 80
Sedge, Umbrella plant response rating [4]: 70
Ducksalad plant response rating (ducksalad [5]): 80
Barnyardgrass plant response rating (barnyardgrass [6]): 70
Rice plant response rating (rice [7]; 62 g ai/ha, scale 0 to 100): 0
Rice plant response rating (rice [7]; [15]): 0
Rice plant response rating (rice [7]; [16]): 20
Plant response rating, Rice (rice [7]; [17]): 75
Sedge, Umbrella plant response rating ([8]; 62 g ai/ha, scale 0 to 100): 0
Sedge, Umbrella plant response rating [8, 15]: 0
Sedge, Umbrella plant response rating [8, 16]: 15
Plant response rating, Sedge, Umbrella [8, 17]: 75
Ducksalad plant response rating (ducksalad [9]; 62 g ai/ha, scale 0 to 100): 0
Ducksalad plant response rating (ducksalad [9]; [15]): 0
Ducksalad plant response rating (ducksalad [9]; [16]): 0
Plant response rating, Ducksalad (ducksalad [9]; [17]): 80
Barnyardgrass plant response rating (barnyardgrass [10]; 62 g ai/ha, scale 0 to 100 (0 no effect, 100 complete control)): 0
Barnyardgrass plant response rating (barnyardgrass [10]; [15]): 0
Barnyardgrass plant response rating (barnyardgrass [10]; [16]): 0
Plant response rating, Barnyardgrass (barnyardgrass [10]; [17]): 0
